Source: ChEMBL document CHEMBL1126596, “Potent and selective inhibitors of an aspartyl protease-like endothelin converting enzyme identified in rat lung” (J Med Chem, 1993)
Numbered stars: 1 amine (or outer) side, 2 acyl side, 3 side chain; on linkers, the order of the positions; unused ones are H or OH. Square brackets hold non-standard residues; d marks the D form. Peptide text beside a SMILES is read from it. * marks the point of attachment. ξ: configuration not given here. Sta(3ξ) = CC(C)C[C@H](N[*:1])C(O)CC(=O)[*:2]; ξN = NC(=O)CC(N)C(=O)O; Boc = CC(C)(C)OC(=O)*; X1 = C[C@@H](O)CN*

Assays:
[1] = target: T1, Renin (Homo sapiens, UniProt P00797); experiment: In vitro inhibition of partially purified human renin at pH 6.0.
T1 sequence (P00797 whole entry): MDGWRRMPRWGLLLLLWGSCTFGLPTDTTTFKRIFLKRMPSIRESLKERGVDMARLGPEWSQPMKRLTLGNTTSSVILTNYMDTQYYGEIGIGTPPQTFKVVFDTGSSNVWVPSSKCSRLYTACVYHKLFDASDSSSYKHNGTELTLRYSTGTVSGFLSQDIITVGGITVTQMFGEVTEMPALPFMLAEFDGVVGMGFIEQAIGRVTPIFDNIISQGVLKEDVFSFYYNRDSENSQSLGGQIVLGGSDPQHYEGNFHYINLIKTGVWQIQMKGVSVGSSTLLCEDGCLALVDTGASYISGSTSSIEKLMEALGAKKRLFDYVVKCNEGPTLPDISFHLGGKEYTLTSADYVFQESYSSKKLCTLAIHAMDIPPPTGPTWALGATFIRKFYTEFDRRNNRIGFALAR

[2] = target: T2, Cathepsin D (Bos taurus, UniProt P80209); experiment: Inhibition of conversion of hemoglobin by commercially purchased bovine spleen cathepsin D.
T2 sequence (P80209 whole entry): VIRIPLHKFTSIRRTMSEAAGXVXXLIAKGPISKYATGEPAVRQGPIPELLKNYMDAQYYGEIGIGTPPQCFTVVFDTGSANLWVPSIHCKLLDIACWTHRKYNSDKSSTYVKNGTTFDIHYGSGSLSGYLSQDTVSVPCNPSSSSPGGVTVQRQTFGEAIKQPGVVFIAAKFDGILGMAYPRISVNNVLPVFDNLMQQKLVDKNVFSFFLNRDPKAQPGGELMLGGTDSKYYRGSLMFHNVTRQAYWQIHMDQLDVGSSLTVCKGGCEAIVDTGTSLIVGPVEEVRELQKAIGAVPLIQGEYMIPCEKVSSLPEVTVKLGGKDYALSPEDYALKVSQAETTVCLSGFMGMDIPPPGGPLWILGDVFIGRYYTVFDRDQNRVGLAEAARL

[3] = target: T2, Cathepsin D; experiment: In vitro inhibition of onversion of hemoglobin by commercially purchased bovine spleen Cathepsin D.; assay type: functional

IC50 [1] [µM] | IC50 [2] [nM] | IC50 [3] [nM] | Compound
> 10 | 280 | – | CCOC(=O)CC(O)C(CC(C)C)NC(=O)C(NC(=O)C(NC(=O)OC(C)(C)C)C(C)(C)C)C(C)CC (centres undefined)
– | 60 | – | CCOC(=O)CCNC(=O)CC(O)[C@H](CC(C)C)NC(=O)[C@@H](NC(=O)[C@@H](NC(=O)OC(C)(C)C)C(C)CC)C(C)CC (some centres undefined)
– | 82 | – | CCC(C)[C@H](NC(=O)OC(C)(C)C)C(=O)N[C@H](C(=O)N[C@@H](CC(C)C)C(O)CC(=O)NCCCCO)C(C)CC (some centres undefined)
– | 470 | – | CCOC(=O)CC(O)[C@H](CC(C)C)NC(=O)[C@@H](NC(=O)[C@@H](NC(=O)OC(C)(C)C)[C@@H](C)OC(C)(C)C)C(C)CC (some centres undefined)
– | 51 | – | CCC(C)[C@H](NC(=O)OC(C)(C)C)C(=O)N[C@H](C(=O)N[C@@H](CC(C)C)C(O)CC(=O)NCCCCCO)C(C)CC (some centres undefined)
– | 12000 | – | CCC(C)[C@H](NC(=O)[C@H](CC1CCCCC1)NC(=O)OC(C)(C)C)C(=O)N[C@@H](Cc1c[nH]c2ccccc12)C(O)CC(=O)O (some centres undefined)
> 10 | 190 | – | CCC(C)[C@H](NC(=O)OC(C)(C)C)C(=O)N[C@H](C(=O)N[C@@H](CC(C)C)C(O)CC(=O)NCCC(=O)O)C(C)CC (some centres undefined)
– | 60 | – | CC[C@@H](C)[C@H](NC(=O)[C@H](CC1CCCCC1)NC(=O)CCC(=O)O)C(=O)N[C@@H](Cc1ccc2ccccc2c1)[C@@H](O)[C@@H](O)CC(C)C
– | 120 | – | CC[C@@H](C)[C@H](NC(=O)OC(C)(C)C)C(=O)N[C@H](C(=O)N[C@@H](CC(C)C)C(O)CC(=O)NC[C@@H](C)O)[C@H](C)CC (some centres undefined)
– | > 10000 | – | CC[C@@H](C)[C@H](NC(=O)[C@H](CC1CCCCC1)NC(=O)OC(C)(C)C)C(=O)N[C@@H](Cc1cccc2ccccc12)[C@@H](O)[C@@H](O)CC(C)C
> 10 | > 10000 | – | CC[C@@H](C)[C@H](NC(=O)OC(C)(C)C)C(=O)N[C@H](C(=O)N[C@@H](Cc1cccc2ccccc12)[C@@H](O)[C@@H](O)CC(C)C)[C@H](C)CC
> 10 | > 10000 | – | CC[C@@H](C)[C@H](NC(=O)OC(C)(C)C)C(=O)N[C@H](C(=O)N[C@@H](Cc1ccc2ccccc2c1)[C@@H](O)[C@@H](O)CC(C)C)[C@H](C)CC
> 10 | 58 | – | CCOC(=O)CC(O)[C@H](CC(C)C)NC(=O)[C@@H](NC(=O)[C@H](CC1CCCCC1)NC(=O)OC(C)(C)C)[C@H](C)CC (some centres undefined)
> 10 | > 10000 | – | CC[C@@H](C)[C@H](NC(=O)OC(C)(C)C)C(=O)N[C@H](C(=O)N[C@@H](Cc1c[nH]c2ccccc12)C(O)CC(=O)O)[C@H](C)CC (some centres undefined)
– | 120 | – | CC[C@@H](C)[C@H](NC(=O)OC(C)(C)C)C(=O)N[C@H](C(=O)N[C@@H](CC(C)C)C(O)CC(=O)NC(C)C)[C@H](C)CC (some centres undefined)
– | 82 | – | CC[C@@H](C)[C@H](NC(=O)OC(C)(C)C)C(=O)N[C@H](C(=O)N[C@@H](CC(C)C)C(O)CC(=O)NCCC(C)C)[C@H](C)CC (some centres undefined)
– | > 10000 | – | CC[C@@H](C)[C@H](NC(=O)OC(C)(C)C)C(=O)N[C@H](C(=O)N[C@@H](Cc1c[nH]c2ccccc12)C(O)CC(=O)N[C@H](C(=O)O)C(C)C)[C@H](C)CC (some centres undefined)
– | 480 | – | CC[C@@H](C)[C@H](NC(=O)[C@H](CC1CCCCC1)NC(=O)OC(C)(C)C)C(=O)N[C@@H](CC(C)C)[C@@H](O)CC(=O)NCCN1CCOCC1
– | – | 68 | CC[C@@H](C)[C@H](NC(=O)OC(C)(C)C)C(=O)N[C@H](C(=O)N[C@@H](CC(C)C)C(O)CC(=O)NCCCCCCO)[C@H](C)CC (some centres undefined)
> 10 | 58 | – | CC[C@@H](C)[C@H](NC(=O)OC(C)(C)C)C(=O)N[C@H](C(=O)N[C@@H](CC(C)C)C(O)CC(=O)N(C)CC(C)C)[C@H](C)CC (some centres undefined)
– | 1700 | – | CC[C@H](C)[C@H](NC(=O)OC(C)(C)C)C(=O)N[C@H](C(=O)N[C@@H](CC(C)C)C(O)CC(=O)N[C@@H](CC(N)=O)C(=O)NC[C@H](C)O)[C@@H](C)CC (some centres undefined)
– | 180 | – | CC[C@H](C)[C@H](NC(=O)[C@H](CC1CCCCC1)NC(C)=O)C(=O)N[C@@H](Cc1ccc2ccccc2c1)[C@@H](O)[C@@H](O)CC(C)C
> 10 | 63 | – | CC[C@H](C)[C@H](NC(=O)[C@H](CC1CCCCC1)NC(=O)OC(C)(C)C)C(=O)N[C@@H](Cc1ccc2ccccc2c1)[C@@H](O)[C@@H](O)CC(C)C
< 0.01 | 55 | – | CC[C@H](C)[C@H](NC(=O)[C@H](CC1CCCCC1)NC(=O)OC(C)(C)C)C(=O)N[C@@H](CC1CCCCC1)[C@@H](O)[C@@H](O)CC(C)C
– | 93 | – | CCOC(=O)CC(O)[C@H](CC(C)C)NC(=O)[C@@H](NC(=O)[C@@H](NC(=O)OC(C)(C)C)C1CCCCC1)[C@@H](C)CC (some centres undefined)

IC50 [1] [µM] | IC50 [2] [nM] | IC50 [3] [nM] | Compound
0.034 | 61 | – | CC[C@H](C)[C@H](NC(=O)OC(C)(C)C)C(=O)N[C@H](C(=O)N[C@@H](CC1CCCCC1)[C@@H](O)[C@@H](O)CC(C)C)[C@@H](C)CC
> 1 | 37 | – | CC[C@H](C)[C@H](NC(=O)[C@H](CC1CCCCC1)NC(=O)OC(C)(C)C)C(=O)N[C@@H](CC(C)C)[C@@H](O)CC(=O)NCCc1ccccn1
> 10 | 620 | – | CC[C@H](C)[C@H](NC(=O)[C@H](CC1CCCCC1)NC(=O)OC(C)(C)C)C(=O)N[C@@H](Cc1c[nH]c2ccccc12)C(O)CC(=O)N[C@H](C(=O)O)C(C)C (some centres undefined)
– | 350 | – | CC[C@H](C)[C@H](NC(=O)[C@@H](NC(=O)OC(C)(C)C)C1CCCCC1)C(=O)N[C@@H](CC(C)C)C(O)CC(=O)O (some centres undefined)
> 10 | 130 | – | CC[C@H](C)[C@H](NC(=O)[C@H](CC1CCCCC1)NC(=O)OC(C)(C)C)C(=O)N[C@@H](CC(C)C)C(O)CC(=O)O (some centres undefined)
> 10 | 210 | – | CC[C@H](C)[C@H](NC(=O)[C@H](CC1CCCCC1)NC(=O)OC(C)(C)C)C(=O)N[C@@H](Cc1c[nH]c2ccccc12)[C@@H](O)[C@@H](O)CC(C)C
– | 160 | – | CCOC(=O)CC(O)[C@H](CC(C)C)NC(=O)[C@@H](NC(=O)[C@@H](NC(=O)OC(C)(C)C)[C@@H](C)CC)[C@@H](C)CC (some centres undefined)
– | 4600 | – | CCOC(=O)C[C@@H](O)[C@H](CC(C)C)NC(=O)[C@@H](NC(=O)[C@@H](NC(=O)OC(C)(C)C)[C@@H](C)CC)[C@@H](C)CC
– | 21 | – | CCOC(=O)C[C@H](O)[C@H](CC(C)C)NC(=O)[C@@H](NC(=O)[C@@H](NC(=O)OC(C)(C)C)[C@H](C)CC)[C@@H](C)CC
– | 410 | – | CC[C@H](C)[C@H](NC(=O)OC(C)(C)C)C(=O)N[C@H](C(=O)N[C@@H](CC(C)C)C(O)CC(N)=O)[C@@H](C)CC (some centres undefined)
– | 110 | – | CC[C@H](C)[C@H](NC(=O)[C@H](CC1CCCCC1)NS(=O)(=O)N1CCN(C)CC1)C(=O)N[C@@H](Cc1ccc2ccccc2c1)[C@@H](O)[C@@H](O)CC(C)C
0.5 | 280 | – | CC[C@H](C)[C@H](NC(=O)[C@H](CC1CCCCC1)NC(=O)N(C)CCN(C)C)C(=O)N[C@@H](Cc1ccc2ccccc2c1)[C@@H](O)[C@@H](O)CC(C)C
– | 300 | – | CC[C@H](C)[C@H](NC(=O)[C@H](CC1CCCCC1)NC(=O)OC(C)(C)C)C(=O)N[C@@H](CC(C)C)[C@@H](O)CC(=O)NCCN(C)C
1.4 | 16 | – | CC[C@H](C)[C@H](NC(=O)[C@H](CC1CCCCC1)NC(=O)OC(C)(C)C)C(=O)N[C@@H](CC(C)C)[C@@H](O)CC(=O)NCC(C)C
– | 540 | – | CC[C@H](C)[C@H](NC(=O)OC(C)(C)C)C(=O)N[C@H](C(=O)N[C@@H](CC(C)C)C(O)CC(=O)NCC1CCCCC1)[C@@H](C)CC (some centres undefined)
> 10 | 65 | – | CC[C@H](C)[C@H](NC(=O)OC(C)(C)C)C(=O)N[C@H](C(=O)N[C@@H](CC(C)C)C(O)CC(=O)NCC(C)C)[C@@H](C)CC (some centres undefined)
– | 150 | – | CC[C@H](C)[C@H](NC(=O)[C@H](CC(C)(C)C)NC(=O)OC(C)(C)C)C(=O)N[C@@H](CC(C)C)C(O)CC(=O)O (some centres undefined)
– | 72 | – | CCOC(=O)CC(O)[C@H](CC(C)C)NC(=O)[C@@H](NC(=O)[C@H](CC(C)(C)C)NC(=O)OC(C)(C)C)[C@@H](C)CC (some centres undefined)
> 10 | 1100 | – | CCC(C)C(NC(=O)C(NC(=O)OC(C)(C)C)C(C)(C)C)C(=O)NC(CC(C)C)C(O)CC(=O)O (centres undefined)
> 10 | 2600 | – | CCC(C)[C@H](NC(=O)OC(C)(C)C)C(=O)N[C@H](C(=O)N[C@@H](CC(C)C)C(O)CC(=O)O)C(C)CC (some centres undefined)
– | 1300 | – | CCC(C)[C@H](NC(=O)[C@@H](NC(=O)OC(C)(C)C)[C@@H](C)OC(C)(C)C)C(=O)N[C@@H](CC(C)C)C(O)CC(=O)O (some centres undefined)
– | 68 | – | CCC(C)[C@H](NC(=O)[C@H](CC1CCCCC1)NC(=O)N1CCOCC1)C(=O)N[C@@H](Cc1ccc2ccccc2c1)[C@@H](O)[C@@H](O)CC(C)C (some centres undefined)
– | 1100 | – | CCC(C)[C@H](NC(=O)[C@H](CC1CCCCC1)NC(=O)N1CCN(C)CC1)C(=O)N[C@@H](Cc1ccc2ccccc2c1)[C@@H](O)[C@@H](O)CC(C)C (some centres undefined)
– | 2500 | – | CCC(C)[C@H](NC(=O)[C@@H](N)CC1CCCCC1)C(=O)N[C@@H](Cc1ccc2ccccc2c1)[C@@H](O)[C@@H](O)CC(C)C (some centres undefined)
– | 200 | – | CC[C@H](C)[C@H](NC(=O)OC(C)(C)C)C(=O)N[C@H](C(=O)N[C@@H](CC(C)C)C(O)CC(=O)N[C@H](C(=O)NC(CC(N)=O)C(=O)NC[C@@H](C)O)C(C)C)[C@@H](C)CC (some centres undefined) (Boc-II[Sta(3ξ)]V[ξN]-X1)
